We go through 17 molecules from ChEMBL document CHEMBL5233273, “An overview of hydroxypyranone and hydroxypyridinone as privileged scaffolds for novel drug discovery” (Eur J Med Chem, 2021).

≈ marks a conversion by molar mass, not a printed value.

Assay [1] relates to RAW264.7. Kind of assay: Antiinflammatory activity in mouse RAW264.7 assessed as reduction in LPS-induced PGE2 production. The class given is functional, cell-based.
Assay [2] has as its system Mycobacterium tuberculosis. Kind of assay: Antitubercular activity against Mycobacterium tuberculosis H37Rv ATCC 27294. In kind it is functional.
Assay [3] has as its system Mycobacterium avium. Kind of assay: Antitubercular activity against Mycobacterium avium ATCC 15769. The class given is functional.
Assay [4] concerns Staphylococcus aureus. Kind of assay: Antibacterial activity against Staphylococcus aureus ATCC 25923. The class given is functional.
The subject of assay [5] is Enterococcus faecalis. Kind of assay: Antibacterial activity against Enterococcus faecalis ATCC 29212. The class given is functional.
Assay [6] has as its system Bacillus subtilis. Kind of assay: Antibacterial activity against Bacillus subtilis ATCC 6633. The class given is functional.
The test system of assay [7] is Escherichia coli. Kind of assay: Antibacterial activity against Escherichia coli ATCC 35218. In kind it is functional.
Assay [8] deals with Pseudomonas aeruginosa. Kind of assay: Antibacterial activity against Pseudomonas aeruginosa ATCC 10145. In kind it is functional.
The test system of assay [9] is Proteus mirabilis. Kind of assay: Antibacterial activity against Proteus mirabilis ATCC 7002. In kind it is functional.
For assay [10], the system named is Klebsiella pneumoniae. Kind of assay: Antibacterial activity against Klebsiella pneumoniae RSKK 574. In kind it is functional.
In assay [11] the test system is Acinetobacter baumannii. Kind of assay: Antibacterial activity against Acinetobacter baumannii i RSKK 02026. In kind it is functional.
Assay [12] relates to Staphylococcus aureus. Kind of assay: Antibacterial activity against Staphylococcus aureus. The class given is functional.
Assay [13] relates to Enterococcus faecalis. Kind of assay: Antibacterial activity against Enterococcus faecalis. In kind it is functional.
Assay [14] deals with Escherichia coli. Kind of assay: Antibacterial activity against Escherichia coli. The class given is functional.
The test system of assay [15] is Pichia kudriavzevii. Kind of assay: Antifungal activity against Candida krusei ATCC 6258. In kind it is functional.
Assay [16] has as its system Staphylococcus aureus. Kind of assay: Antibacterial activity against Staphylococcus aureus assessed as zone of inhibition. In kind it is functional.
In assay [17] the test system is Bacillus subtilis. Kind of assay: Antibacterial activity against Bacillus subtilis assessed as zone of inhibition. The class given is functional.
Assay [18] addresses T1, Tyrosinase (Agaricus bisporus, UniProt O42713).
T1 sequence (O42713 whole entry): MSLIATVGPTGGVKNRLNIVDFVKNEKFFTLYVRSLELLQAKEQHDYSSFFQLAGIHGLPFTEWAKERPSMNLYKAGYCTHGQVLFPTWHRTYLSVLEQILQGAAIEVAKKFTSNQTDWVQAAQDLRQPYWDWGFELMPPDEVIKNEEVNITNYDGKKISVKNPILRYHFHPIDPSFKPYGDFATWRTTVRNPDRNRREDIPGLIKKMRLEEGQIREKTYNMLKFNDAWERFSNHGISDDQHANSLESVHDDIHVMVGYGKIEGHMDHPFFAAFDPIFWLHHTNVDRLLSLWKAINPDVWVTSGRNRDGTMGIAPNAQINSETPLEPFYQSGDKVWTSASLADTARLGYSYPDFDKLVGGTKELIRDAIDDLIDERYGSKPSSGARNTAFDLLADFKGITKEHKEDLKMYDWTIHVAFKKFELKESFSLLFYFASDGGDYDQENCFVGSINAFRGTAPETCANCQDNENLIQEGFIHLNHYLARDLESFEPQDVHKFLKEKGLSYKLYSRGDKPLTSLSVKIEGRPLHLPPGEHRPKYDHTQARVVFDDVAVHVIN
Kind of assay: Inhibition of mushroom tyrosinase.

The subject of assay [19] is Hepatitis C virus. Kind of assay: Antiviral activity against HCV. The class given is functional, organism-based, Hepacivirus hominis.
The nature of assay [20]: Inhibition of TBHP induced lipid peroxidation in human HaCaT cells. The class given is functional.
Assay [21] relates to B16-F10. Kind of assay: Inhibition of tyrosinase in mouse B16-F10 cells assessed as inhibition of melanin production at 5 ug relative to control. In kind it is cell-based. Particulars: dose 5.0 µg.
In assay [22] the test system is Candida albicans. Kind of assay: Antifungal activity against Candida albicans ATCC10231. In kind it is functional.
Assay [23] relates to Candida parapsilosis. Kind of assay: Antifungal activity against […]. In kind it is functional. Particulars: Lodderomyces parapsilosis.
For assay [24], the system named is Candida tropicalis. Kind of assay: Antifungal activity against Candida tropicalis ATCC 13803. The class given is functional.
Assay [25] relates to A549. Kind of assay: Cytotoxicity against human A549 cells. The class given is functional, cell-based.
Assay [26] deals with DU-145. Kind of assay: Cytotoxicity against human DU-145 cells. The class given is functional, cell-based.
For assay [27], the system named is MCF7. Kind of assay: Cytotoxicity against human MCF7 cells. The class given is functional, cell-based.
The subject of assay [28] is HeLa. Kind of assay: Cytotoxicity against human HeLa cells. In kind it is functional, cell-based.
For assay [29], the system named is B16-F10. Kind of assay: Inhibition of tyrosinase in mouse B16-F10 cells assessed as inhibition of melanin production at 10 ug/ml relative to control. In kind it is cell-based. The following applies: dose 10.0 µg/ml.
The target in assay [30] is T2, Tyrosinase (Agaricus bisporus) (UniProt O42713).
T2 sequence (whole entry): T1 sequence (O42713 whole entry)
Kind of assay: Inhibition of mushroom tyrosinase monophenolase activity.

The target of assay [31] is T1, Tyrosinase. Kind of assay: Inhibition of mushroom tyrosinase diphenolase activity.
In assay [32] the target is Amine oxidase [flavin-containing] B (Homo sapiens, UniProt P27338). Kind of assay: Inhibition of human MAO-B.
Amine oxidase [flavin-containing] B, sequence (P27338 whole entry): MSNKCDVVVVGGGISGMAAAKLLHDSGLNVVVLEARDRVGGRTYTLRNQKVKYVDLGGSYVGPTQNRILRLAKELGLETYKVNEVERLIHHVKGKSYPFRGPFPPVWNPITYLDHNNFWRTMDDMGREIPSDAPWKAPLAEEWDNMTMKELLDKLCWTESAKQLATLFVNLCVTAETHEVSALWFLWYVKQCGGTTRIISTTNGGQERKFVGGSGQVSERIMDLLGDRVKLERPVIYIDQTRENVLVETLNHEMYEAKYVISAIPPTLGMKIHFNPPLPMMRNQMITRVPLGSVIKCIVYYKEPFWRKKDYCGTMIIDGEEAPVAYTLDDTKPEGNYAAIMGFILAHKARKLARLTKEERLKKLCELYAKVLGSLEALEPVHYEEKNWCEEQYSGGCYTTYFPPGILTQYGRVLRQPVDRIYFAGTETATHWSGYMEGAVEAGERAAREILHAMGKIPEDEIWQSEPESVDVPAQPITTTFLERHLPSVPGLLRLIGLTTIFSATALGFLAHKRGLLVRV
Assay [33] is described as follows: Antiinflammatory activity in macrophages assessed as reduction in LPS-induced NO production. In kind it is functional, cell-based. Particulars: Macrophage.
In assay [34] the test system is Saccharomyces cerevisiae. Kind of assay: Antifungal activity against Saccharomyces cerevisiae. In kind it is functional.
Assay [35] relates to Aspergillus niger. Kind of assay: Antifungal activity against Aspergillus niger. The class given is functional.
Assay [36] can be described thus: Antioxidant activity assessed as DPPH radical scavenging activity. The class given is functional.

With `O=c1cc(/C=C/c2ccc(O)cc2)occ1O`, the IC50 in assay [1] was 3.2 µM.
On to `O=c1cc(CCl)oc(CN2CCN(Cc3ccc(C(F)(F)F)cc3)CC2)c1O`, for which the MIC in assay [2] is 4 µg/mL (≈ 9.6 µM); in assay [3] it was 4 µg/mL (≈ 9.6 µM); in [4], 4 µg/mL (≈ 9.6 µM); in [5], 4 µg/mL (≈ 9.6 µM); in assay [6], 4 µg/mL (≈ 9.6 µM); in assay [7] it was 8 µg/mL (≈ 19.2 µM). For the same molecule, the MIC in assay [8], in assay [9], in assay [10] and in assay [11] was 8 µg/mL (≈ 19.2 µM) throughout.
Consider `Cc1cc(=O)c(O)c(C(=O)Nc2ccc3c(C)cc(=O)oc3c2)o1`, for which the MIC is 8 µg/mL (≈ 24.4 µM) in [12], 8 µg/mL (≈ 24.4 µM) in assay [13], 8 µg/mL (≈ 24.4 µM) in assay [14] and 4 µg/mL (≈ 12.2 µM) in [15].
Turning to `N#CC(C(=O)c1c[nH]c2ccccc12)C(c1ccc(Cl)cc1)c1oc(CO)cc(=O)c1O` (centres undefined), the “inhibition zone (IZ)” value is reported as 22 mm in [16] and 19.5 mm in [17].
`COc1ccc(C(=O)OCc2cc(=O)c(O)co2)cc1`: in [18], it took 20 µM to reach half-maximal inhibition (IC50). In assay [19], the response was half-maximal at 2.55 µM (EC50).
Take `O=C(/C=C/c1ccc2c(c1)OCO2)OCc1cc(=O)c(O)co1`: in assay [18], the IC50 is 1.4 µM. The “inhibition (INH)” value in [20] worked out at 47%.
`O=C(OCc1cc(=O)c(O)co1)c1ccc2ccccc2c1` showed an EC50 in assay [19] of 2.74 µM.
Turning to `O=c1cc(/C=C/c2ccc(O)c(O)c2)occ1O`, in assay [1], the IC50 was 10.3 µM.
With `O=c1cc(/C=C/c2cc(=O)c(O)co2)occ1O`, in [21], the inhibition came to 19.5%.
Turning to `O=c1cc(CCl)oc(CN2CCN(c3ccccc3)CC2)c1O`, the MIC in [15] was determined as 8 µg/mL (≈ 23.9 µM); in assay [2], 4 µg/mL (≈ 11.9 µM); in assay [3], 4 µg/mL (≈ 11.9 µM); in [7], 8 µg/mL (≈ 23.9 µM); in [8], 8 µg/mL (≈ 23.9 µM); in assay [9], 8 µg/mL (≈ 23.9 µM). For the same molecule, the MIC in assay [10], in assay [11], in assay [22], in assay [23] and in [24] was 8 µg/mL (≈ 23.9 µM) throughout.
In the case of `CC(C)(C)[Si](C)(C)OCc1cc(=O)c(O)c(C(C[N+](=O)[O-])c2ccc(Cl)cc2)o1` (centres undefined), the IC50 in assay [25] was determined as 18 µM; in assay [26], 16 µM; in assay [27] it was 18 µM; in assay [28] it was 11 µM.
In the case of `O=C(/C=C/c1cc(=O)c(O)co1)OCCCOCCCOC(=O)/C=C/c1cc(=O)c(O)co1`, in [29], the inhibition was 22.4%.
With `CCCCCCn1cc(O)c(=O)cc1/C=N/OCC`, in assay [30], the IC5 turned out to be 2.04 µM. The molecule further came in with an IC50 in [31] of 13.9 µM.
For `CCc1c(O)c(=O)cc(C)n1CCCn1cc(COc2ccc3ccc(=O)oc3c2)nn1`, it took 0.68 µM to reach half-maximal inhibition in assay [32] (IC50).
Take `O=c1cc(CSc2ccc(Cl)cc2)occ1O`: the IC50 in assay [33] stood at 23.9 µM.
As for `CO[C@@H]1O[C@H](COCc2cc(=O)c(O)co2)[C@@H](C)[C@H](OCc2cc(=O)c(O)co2)[C@H]1N`, the MIC in assay [12], in assay [14], in [34] and in assay [35] was 1040 µg/mL (≈ 2370 µM) in each case.
In the case of `CCOC(=O)CC(c1ccccc1)c1oc(CO)cc(=O)c1O` (centres undefined), the Activity in assay [36] came out at 58.2%.
